For three compounds, zone of inhibition results are on record in ChEMBL document CHEMBL1147899, “Raman, FT-IR, NMR spectroscopic data and antimicrobial activity of bis[micro2-(benzimidazol-2-yl)-2-ethanethiolato-N,S,S-chloro-palladium(II)] dimer, [(micro2-CH2CH2NHNCC6H4)PdCl]2.C2H5OH complex” (2007).

Holding throughout (assay type): functional
Test [1] relates to Kluyveromyces marxianus. Put plainly: Antifungal activity against Kluyveromyces fragilis NRRL 2415 at 10 ug after 72 hrs by disk diffusion method. As to conditions: NRRL 2415, 72 h, read-out: IZ. Background: In agar diffusion tests the substance spreads into inoculated agar from a disc or well.
Test [2] deals with Debaryomyces hansenii. Put plainly: Antifungal activity against Debaryomyces hansenii DSM 70238 at 10 ug after 72 hrs by disk diffusion method. Conditions: DSM 70238, 72 h, read-out: IZ.
In test [3] the test system is Hanseniaspora guilliermondii. The experiment in a line: Antifungal activity against Hanseniaspora guilliermondii DSM 3432 at 10 ug after 72 hrs by disk diffusion method. As to conditions: DSM 3432, 72 h, read-out: IZ.
In test [4] the test system is Rhodotorula mucilaginosa. The experiment in a line: Antifungal activity against Rhodotorula rubra DSM 70403 at 10 ug after 72 hrs by disk diffusion method. Conditions: DSM 70403, 72 h, read-out: IZ.
For test [5], the system named is Candida albicans. Put plainly: Antifungal activity against Candida albicans ATCC 10231 at 10 ug after 72 hrs by disk diffusion method. Conditions: ATCC 10231, 72 h, read-out: IZ.
For another test, the system named is Micrococcus luteus. Put plainly: Antibacterial activity against Micrococcus luteus La 2971 at 5 ug by disk diffusion method. Conditions: read-out: IZ.
For the next test, the system named is Klebsiella pneumoniae. Put plainly: Antibacterial activity against Klebsiella pneumoniae UC57 at 5 ug after 24 hrs by disk diffusion method. As to conditions: read-out: IZ.
The test system of another test is Bacillus cereus. Put plainly: Antibacterial activity against Bacillus cereus ATCC 7064 at 5 ug after 24 hrs by disk diffusion method. As to conditions: ATCC 7064, 24 h, read-out: IZ.
In the next test the test system is Staphylococcus aureus. The experiment in a line: Antibacterial activity against Staphylococcus aureus ATCC 6538 at 5 ug after 24 hrs by disk diffusion method. As to conditions: ATCC 6538, 24 h, read-out: IZ.
The subject of the next test is Listeria monocytogenes. Put plainly: Antibacterial activity against Listeria monocytogenes ATCC 15313 at 5 ug after 24 hrs by disk diffusion method. Conditions: ATCC 15313, 24 h, read-out: IZ.
The next test deals with Pseudomonas aeruginosa. Put plainly: Antibacterial activity against Pseudomonas aeruginosa ATCC 27853 at 5 ug after 24 hrs by disk diffusion method. As to conditions: ATCC 27853, 24 h, read-out: IZ.
The next test concerns Proteus vulgaris. Put plainly: Antibacterial activity against Proteus vulgaris ATCC 8427 at 5 ug after 24 hrs by disk diffusion method. Conditions: ATCC 8427, 24 h, read-out: IZ.
Another test deals with Escherichia coli. Put plainly: Antibacterial activity against Escherichia coli ATCC 11230 at 5 ug after 24 hrs by disk diffusion method. Conditions: ATCC 11230, 24 h, read-out: IZ.
The test system of test [6] is Mycolicibacterium smegmatis. The experiment in a line: Antibacterial activity against Mycobacterium smegmatis CCM 2067 at 5 ug after 24 hrs by disk diffusion method. As to conditions: CCM 2067, 24 h, read-out: IZ.
Test [7] relates to Candida albicans. Put plainly: Antifungal activity against Candida albicans ATCC 10231 at 20 ug after 72 hrs by disk diffusion method. Conditions: ATCC 10231, 72 h, read-out: IZ.
Test [8] deals with Rhodotorula mucilaginosa. The experiment in a line: Antifungal activity against Rhodotorula rubra DSM 70403 at 20 ug after 72 hrs by disk diffusion method. As to conditions: DSM 70403, 72 h, read-out: IZ.
The subject of test [9] is Debaryomyces hansenii. The experiment in a line: Antifungal activity against Debaryomyces hansenii DSM 70238 at 20 ug after 72 hrs by disk diffusion method. As to conditions: DSM 70238, 72 h, read-out: IZ.
Test [10] concerns Kluyveromyces marxianus. Put plainly: Antifungal activity against Kluyveromyces fragilis NRRL 2415 at 20 ug after 72 hrs by disk diffusion method. Conditions: NRRL 2415, 72 h, read-out: IZ.
The subject of test [11] is Hanseniaspora guilliermondii. The experiment in a line: Antifungal activity against Hanseniaspora guilliermondii DSM 3432 at 20 ug after 72 hrs by disk diffusion method. Conditions: DSM 3432, 72 h, read-out: IZ.

The structures appear in SMILES notation.

Regarding `Clc1ccccc1C(c1ccccc1)(c1ccccc1)n1ccnc1` [CLOTRIMAZOLE], the zone of inhibition at 10 µg/disc with Kluyveromyces marxianus [1] worked out at 18 mm; in the test with Debaryomyces hansenii [2], 18 mm; in [3], 22 mm; with Rhodotorula mucilaginosa [4], 16 mm; in the test with Candida albicans [5] it was 15 mm.

As to `CC1COc2c(N3CCN(C)CC3)c(F)cc3c(=O)c(C(=O)O)cn1c23` (centres undefined) [OFLOXACIN], the zone of inhibition at 5 µg/disc worked out at 28 mm in the test with Micrococcus luteus; 28 mm with Klebsiella pneumoniae; 30 mm with Bacillus cereus; 24 mm with Staphylococcus aureus; 30 mm in the test with Listeria monocytogenes; 44 mm with Pseudomonas aeruginosa. Besides, the values for the zone of inhibition at 5 µg/disc (with Proteus vulgaris; in the test on Escherichia coli; in test [6]) were 28 mm, 30 mm and 32 mm, respectively.

As for `CC(=O)N1CCN(c2ccc(OCC3COC(Cn4ccnc4)(c4ccc(Cl)cc4Cl)O3)cc2)CC1` (centres undefined) [KETOCONAZOLE], the zone of inhibition at 20 µg/disc in the test on Candida albicans [7] is 21 mm; with Rhodotorula mucilaginosa [8], 22 mm; in the test on Debaryomyces hansenii [9], 14 mm; in the test on Kluyveromyces marxianus [10], 16 mm; in test [11], 24 mm.
